Assay results: the supplement of paper PMC10307832

Key:
Assay in all cases: relative viability (nuclei count vs DMSO), 5 days (fraction); higher = more cells survive
Adavosertib + Navitoclax = compound: C=CCn1c(=O)c2cnc(Nc3ccc(N4CCN(C)CC4)cc3)nc2n1-c1cccc(C(C)(C)O)n1 [Adavosertib] + CC1(C)CCC(c2ccc(Cl)cc2)=C(CN2CCN(c3ccc(C(=O)NS(=O)(=O)c4ccc(N[C@H](CCN5CCOCC5)CSc5ccccc5)c(S(=O)(=O)C(F)(F)F)c4)cc3)CC2)C1 [Navitoclax] (partner 0.5 µM)
In short: (§1)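 After 5 days of treatment, lung cancer cells in 1536-well plates were fixed and stained in a single step (final 0.05% Triton X-100, 1% formaldehyde, 1 ug/ml Hoechst) and their nuclei counted on 4× images. Treatment had been applied by pin tool the day after seeding as one drug alone or as a fixed anchor-drug dose with five library-drug doses (not always all listed) in √10 steps. Relative viability is the nuclei count of treated wells divided by that of vehicle wells, and values are medians of duplicate plates.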

Nelarabine + Alpelisib = compound: COc1nc(N)nc2c1ncn2[C@@H]1O[C@H](CO)[C@@H](O)[C@@H]1O [Nelarabine] + Cc1nc(NC(=O)N2CCC[C@H]2C(N)=O)sc1-c1ccnc(C(C)(C)C(F)(F)F)c1 [Alpelisib] (partner 2 µM)
In short: as §1

Adavosertib + Phenformin = compound: C=CCn1c(=O)c2cnc(Nc3ccc(N4CCN(C)CC4)cc3)nc2n1-c1cccc(C(C)(C)O)n1 [Adavosertib] + N=C(N)NC(=N)NCCc1ccccc1 [Phenformin] (partner 250 µM)
In short: as §1

Nelarabine + Luminespib = compound: COc1nc(N)nc2c1ncn2[C@@H]1O[C@H](CO)[C@@H](O)[C@@H]1O [Nelarabine] + CCNC(=O)c1noc(-c2cc(C(C)C)c(O)cc2O)c1-c1ccc(CN2CCOCC2)cc1 [Luminespib] (partner 0.01 µM)
In short: as §1

Row | Cell Line | relative viability (Adavosertib + Navitoclax; first compound 0.01 µM) | relative viability (Adavosertib + Navitoclax; first compound 0.03162 µM) | relative viability (Adavosertib + Navitoclax; first compound 0.1 µM) | relative viability (Adavosertib + Navitoclax; first compound 0.3162 µM) | relative viability (Nelarabine + Alpelisib; first compound 0.01 µM) | relative viability (Nelarabine + Alpelisib; first compound 0.03162 µM) | relative viability (Nelarabine + Alpelisib; first compound 0.1 µM) | relative viability (Nelarabine + Alpelisib; first compound 0.3162 µM) | relative viability (Nelarabine + Alpelisib; first compound 1 µM) | relative viability (Adavosertib + Phenformin; first compound 0.01 µM) | relative viability (Adavosertib + Phenformin; first compound 0.03162 µM) | relative viability (Adavosertib + Phenformin; first compound 0.1 µM) | relative viability (Adavosertib + Phenformin; first compound 0.3162 µM) | relative viability (Nelarabine + Luminespib; first compound 0.01 µM) | relative viability (Nelarabine + Luminespib; first compound 0.03162 µM) | relative viability (Nelarabine + Luminespib; first compound 0.1 µM) | relative viability (Nelarabine + Luminespib; first compound 0.3162 µM) | relative viability (Nelarabine + Luminespib; first compound 1 µM)
1 | NCI-H23 | 0.89 | 0.677 | 0.938 | 0.368 | 0.637 | 0.719 | 0.606 | 0.686 | 0.693 | 0.732 | 0.759 | 0.838 | 0.585 | 0.226 | 0.201 | 0.23 | 0.225 | 0.21
2 | NCI-H322M | – | 1.25 | 1.12 | 0.953 | 0.926 | 0.792 | 0.677 | 0.772 | 0.836 | 0.737 | 0.759 | 0.656 | 0.342 | 0.917 | 0.84 | 0.79 | 0.834 | 0.967
3 | LC-2-ad | 0.452 | 0.411 | 0.392 | 0.216 | 0.959 | 0.825 | 0.937 | 0.734 | 0.928 | 0.565 | 0.635 | 0.621 | 0.597 | 1.1 | 1.09 | 0.932 | 1.08 | 0.916
4 | LOU-NH91 | 0.718 | 0.688 | 0.663 | 0.53 | 0.74 | 0.704 | 0.661 | 0.706 | 0.738 | 0.661 | 0.743 | 0.687 | 0.725 | 0.392 | 0.45 | 0.354 | 0.346 | 0.356
5 | CAL-12T | 1.03 | 1.33 | 1.19 | 1.02 | 1.86 | 1.48 | 1.16 | 1.4 | 1.37 | 0.576 | 0.545 | 0.573 | 0.336 | 0.32 | 0.315 | 0.367 | 0.699 | 0.394
6 | NCI-H2009 | 1.14 | 1.18 | 1.21 | 1.23 | 1.25 | 1.32 | 1.15 | 1.2 | 1.14 | 0.486 | 0.551 | 0.496 | 0.427 | 1.16 | 1.05 | 1.02 | 1.07 | 1.05
7 | SK-LU-1 | 0.759 | 0.594 | 0.989 | 0.238 | 1.36 | 0.608 | 0.87 | 1.22 | 1 | 0.57 | 0.484 | 0.458 | 0.223 | 0.225 | 0.154 | 0.215 | 0.199 | 0.223
8 | NCI-H1793 | 0.338 | 0.405 | 0.422 | 0.425 | 0.748 | 0.736 | 0.625 | 0.68 | 0.693 | 0.356 | 0.385 | 0.414 | 0.273 | 0.421 | 0.156 | 0.201 | 0.251 | 0.191
9 | NCI-H3122 | 1.07 | 1.02 | 1 | 1.01 | 0.898 | 0.569 | – | 0.881 | 0.761 | 0.365 | 0.402 | 0.355 | 0.365 | 0.0966 | 0.11 | – | 0.12 | 0.115
10 | NCI-H1437 | 1.05 | 1.13 | 1.16 | 1.11 | 1.17 | 0.918 | 0.945 | 1.13 | 1.03 | 0.388 | 0.308 | 0.275 | 0.285 | 1.3 | 1.02 | 1.13 | 1.21 | 1.02
11 | A-427 | 0.94 | 0.908 | 0.959 | 0.895 | 0.851 | 1.06 | 1.11 | 1.07 | 1.05 | 0.337 | 0.289 | 0.297 | 0.255 | 0.96 | 0.982 | 0.721 | 0.964 | 0.983
12 | HCC-15 | 0.699 | 0.712 | 0.801 | 0.821 | 1.09 | 0.822 | 0.847 | 0.983 | 0.934 | 0.474 | 0.471 | 0.494 | 0.504 | 0.304 | 0.158 | 0.349 | 0.295 | 0.409
13 | EKVX | 0.927 | 0.929 | 0.944 | 1.2 | 0.958 | 0.772 | 0.717 | 1.04 | 0.832 | 0.249 | 0.238 | 0.227 | 0.234 | 0.946 | 0.771 | 0.809 | 0.796 | 0.915
14 | BEN | 0.0632 | 0.0724 | 0.0727 | 0.0601 | 1.53 | 0.95 | 1.1 | 1.06 | 1.08 | 0.277 | 0.261 | 0.299 | 0.25 | 0.323 | 0.131 | 0.371 | 0.488 | 0.331
15 | 201T | 1.24 | 1.18 | 1.26 | 1.18 | 1.06 | 1.02 | 0.968 | 1.03 | 1 | 0.453 | 0.441 | 0.467 | 0.453 | 1.09 | 1.09 | 1.03 | 1.07 | 1.04
16 | SW 1573 | 1.07 | 0.988 | 1.29 | 0.926 | 0.57 | 0.848 | 0.803 | 0.806 | 0.818 | 0.384 | 0.564 | 0.408 | 0.324 | 0.168 | 0.174 | 0.164 | 0.34 | 0.229
17 | HCC-827 | 1.06 | 1.07 | 1.18 | 0.993 | 0.999 | 0.848 | 0.839 | 0.784 | 0.595 | 0.391 | 0.434 | 0.46 | 0.387 | 0.889 | 0.68 | 0.644 | 0.511 | 0.385
18 | NCI-H2228 | 0.691 | 1.41 | 0.885 | 0.305 | 0.882 | 0.595 | – | 0.815 | 0.676 | 0.252 | 0.27 | 0.257 | 0.243 | 0.182 | 0.156 | – | 0.161 | 0.151
